Test results reported in patent US20090143311A1, “Compositions comprising tripeptides inhibiting ace” (priority 2005, published 2009).

Assays:
ACE [1] = assay: at-line ACE inhibition assay; assay type: biochemical; settings: HHL substrate, PBS pH 7.4, 60 minutes at 50° C.
Excerpt: The presence of novel ACE inhibiting peptides in CDBAP was investigated by using 2-dimensional-chromatographic-separation combined with an at-line ACE inhibition assay and mass spectrometry for identification. In the first analysis the peptide mixture was separated on an ODS3 liquid chromatography (LC) column and ACE inhibition profiles were generated from the various fractions obtained. In a second analysis the fractions from the first column showing a high ACE inhibition were further separated on a Biosuite LC column using a different gradient profile. The fractions collected from this second column were split into two parts: one part was used for the at-line ACE inhibition measurement while the other part was subjected to MS and MS-MS analysis to identify the peptides present. […]
The 96 well plate was then analysed on a flash-HPLC-column. […] Hippuric acid (H) and HHL were monitored at 280 nm. The peak heights of H and HHL were measured and the ACE inhibition (ACEI) of each fraction was calculated according to the equation: […]
The Degree of Cleavage was calculated by expressing the peak height of H as a fraction of the sum of the peak heights of H and HHL.

ACE [2] = assay: modified Matsui ACE inhibition assay; assay type: biochemical
Method: Quantification of MAP and ITP in the various samples was performed on a Micromass Quattro II MS instrument operated in the positive electrospray, multiple reaction monitoring mode. The HPLC method used was similar to the one described above. The MS settings (ESI+) were as follows: cone voltage 37 V, capillary voltage 4 kV, drying gas nitrogen at 300 l/h. Source and nebulizer temperature: 100° C. and 250° C., respectively. The synthesized peptides were used to prepare a calibration line using the precursor ion 318.1 and the summed product ions […] for MAP and using the precursor ion 320.2 and the summed product ions […] for ITP. According to these analyses the novel ACE inhibiting tripeptides MAP and ITP are present in the CDBAP product in quantities corresponding with 2.9 mg MAP/gram CDBAP or 4.8 mg MAP/gram protein in CDBAP and 0.9 mg ITP/gram CDBAP en 1.4 mg ITP/gram protein in CDBAP. […]
Each one of the four samples contained 75 μl 3 mM hippuryl histidine leucine (Hip-His-Leu, Sigma) dissolved in a 250 mM borate solution containing 200 mM NaCl, pH 8.3. […] After incubation for 20 min. at 37° C., 4 ml 4 mM Na2SO3 in 0.2 M NaH2PO4 was added and the light absorbance at 416 nm was measured with UV/Vis spectrophotometer (Shimadzu UV-1601 with a CPS controller, Netherlands). […]

ACE [3] = target: ACE (Homo sapiens, UniProt P12821); settings: literature (Nakamura 1995; Aryoshi 1993); read-out: IC50 values reported earlier; cited from earlier work
Chain of ACE (Homo sapiens, UniProt P12821) (P12821 30-1306, species assumed): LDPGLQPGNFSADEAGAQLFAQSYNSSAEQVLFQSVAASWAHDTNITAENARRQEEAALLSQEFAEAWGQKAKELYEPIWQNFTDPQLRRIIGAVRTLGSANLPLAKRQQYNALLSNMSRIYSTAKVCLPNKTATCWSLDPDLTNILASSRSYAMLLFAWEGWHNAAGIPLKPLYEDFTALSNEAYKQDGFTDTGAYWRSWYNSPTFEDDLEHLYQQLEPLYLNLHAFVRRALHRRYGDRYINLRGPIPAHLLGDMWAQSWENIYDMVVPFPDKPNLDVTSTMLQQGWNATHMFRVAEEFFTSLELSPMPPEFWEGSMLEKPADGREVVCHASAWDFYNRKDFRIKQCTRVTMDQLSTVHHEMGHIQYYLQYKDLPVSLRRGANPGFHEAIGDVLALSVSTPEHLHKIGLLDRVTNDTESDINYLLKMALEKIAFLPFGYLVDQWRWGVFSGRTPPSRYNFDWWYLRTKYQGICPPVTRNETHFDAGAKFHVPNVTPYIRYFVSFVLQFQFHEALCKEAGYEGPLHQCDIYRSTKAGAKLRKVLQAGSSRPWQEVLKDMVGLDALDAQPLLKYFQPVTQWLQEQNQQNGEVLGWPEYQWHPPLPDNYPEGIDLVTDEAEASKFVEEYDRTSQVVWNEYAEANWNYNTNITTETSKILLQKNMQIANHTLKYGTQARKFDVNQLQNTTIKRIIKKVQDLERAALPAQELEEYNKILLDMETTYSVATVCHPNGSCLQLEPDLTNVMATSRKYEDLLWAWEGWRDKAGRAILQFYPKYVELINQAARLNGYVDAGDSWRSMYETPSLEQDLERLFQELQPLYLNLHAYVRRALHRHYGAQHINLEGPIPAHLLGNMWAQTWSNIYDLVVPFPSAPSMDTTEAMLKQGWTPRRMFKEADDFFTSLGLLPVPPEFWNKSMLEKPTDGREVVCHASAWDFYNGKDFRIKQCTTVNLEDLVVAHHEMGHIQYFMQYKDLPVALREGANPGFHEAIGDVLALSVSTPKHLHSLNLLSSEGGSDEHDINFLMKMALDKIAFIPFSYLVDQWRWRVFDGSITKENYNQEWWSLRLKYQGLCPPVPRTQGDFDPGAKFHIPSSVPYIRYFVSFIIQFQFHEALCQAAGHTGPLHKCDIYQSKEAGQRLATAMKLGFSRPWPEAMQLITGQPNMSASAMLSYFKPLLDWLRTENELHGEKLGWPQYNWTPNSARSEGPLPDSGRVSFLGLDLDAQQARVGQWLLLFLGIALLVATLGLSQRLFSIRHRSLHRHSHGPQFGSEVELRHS

Row | IC50 (ACE [1]) | IC50 (ACE [2]; chemically synthesized peptides, Hip-His-Leu, pH 8.3, 37° C., 30 min, read-out: IC50 value Modified Matsui assay) | IC50 (ACE [2]; read-out: IC50 value in Modified Matsui test) | Substance | IC50 (ACE [3])
1 | 7.1 µM | 2000 nM | 2000 nM | IPP: known ACE inhibiting tripeptide, kappa-casein f108-110; chemically synthesized IPP used as internal reference | 5 µM
2 | – | – | – | LPP: known ACE inhibiting tripeptide, β-casein f151-153 (UniProt P02666 166-168, looked up, fragment) | 9.6 µM
